This note sets out measurements from patent publication US20240300935A1, “Nitrogen Oxide Donors of Beraprost Derivative and the Pharmaceutical Compositions with the Use Thereof” (GUANGZHOU KEMROCMED CO., LTD., priority 2021, published 2024).

Assay [1] is described as follows: In vitro NO release test (Griess method). Conditions: 200 μM test compound solution mixed with 200 μM L-cysteine solution, 37° C. The procedure: NO was transiently oxidized in aqueous solution using released NO by Griess' method, NO^2− And Griess reagent form a complex, which has strong UV uptake at 540 nm to determine the amount of NO released by the compound. • 1) Preparation of solution: blank solution: 10 mL DMSO and 190 m L PBS mixed; G riess Reagent: sulfonamide (4.0 g), N-(1-naphthalyl) ethylenediamine dihydrochloride (0.2 g) and 10 mL 85% H3PO4 dissolved in 90 mL of distilled water, Blow until clear solution; L-cysteine solution: after accurate weighing of L-cysteine, Add a certain amount of PBS, Prepare a weighed 200 μM solution; Test compound solution: the exact weighing of the test compound, Dissolved in D MSO and diluted to a concentration of 1 mM, Then, when diluted in PBS, To a concentration of 200 μM.
2) Formulation of standard curve equation: prepare sodium nitrite solution concentration: 0 ,0 , 1, 3, 6, 12.5, 25, 50, 100 μmol/L, 150 μL of each concentration, add 50 μL of Griess reagent mix, incubated in 37° C. constant temperature shaker for 30 min, the plate reader measured each tube absorbance at 540 nm, after subtracting the blank solution reading, the standard curve equation . . . 78.56.13.25 • 3) Test compound test: mix 2 mL of the test compound solution and L-cysteine solution, incubate in 37° C. constant temperature shakers for 120 min, take 150 μL of each mixture, add 50 μL of Griess reagent, then incubate in 37° C. constant temperature shaker for 30 min, the microplate measured each tube absorbance at 540 nm, then subtract the blank solution reading and substitute the value into the standard curve equation to obtain NO release.
(In general: Griess reagent forms a coloured azo dye with nitrite.)

In assay [2] the test system is platelet aggregation induced by ADP. Description: Antiplatelet aggregation effect, ADP-induced, turbidimetry in platelet-rich plasma. It is filed as cell-based. The note with it: Homo sapiens, 2 min; platelet rich plasma of healthy subjects; 25 μL of 50 nM compound solution in 225 μL plasma, 37° C. 2 min; ADP final 2 μM; read-out: The rate of platelet aggregation inhibition. The procedure:
• 1) Experimental material: ADP, epinephrine, collagen (bilBio) • 2) Experimental method: blood samples provided by healthy subjects were mixed blood with 3.8% citric acid solution and centrifuged at 160 r/min to obtain platelet-rich plasma. To calibrate the data, the obtained platelet-rich plasma was further centrifuged at 2000 r/min to obtain platelet-poor plasma, stored in a −20° C. refrigerator. Testing was performed using Born I's turbiometry. 225 μL of platelet rich plasma was added to the reaction cup, the embodiment compound was configured as 50 nM solution (25 m M Tris-acetate and 120 m M N a Cl), 25 μL of embodiment compound solution was added and after incubation at 37° C. for 2 min, 5 μL of ADP (final concentration 2 μM) was added for platelet aggregation induction. To assess the degree of platelet aggregation, the maximum absorbance value took the data after ADP, thus calculating the inhibition rate of ADP-induced platelet aggregation by each embodiment compound. According to the data in Table 6 below, the compounds of the present application embodiment all have a good effect of inhibiting the platelet aggregation induced by ADP.

Turning to `CC#CCC(C)[C@@H](O)/C=C/[C@H]1[C@@H]2c3cccc(CCCC(=O)OCCCCO[N+](=O)[O-])c3O[C@@H]2C[C@@H]1O` (stereo partly drawn) [Compound 3], the “120 min NO^2−” value in assay [1] turned out to be 16.6 µM. Further, in assay [2], the inhibition at 0.005 µM worked out at 57%.

Regarding `CC#CCC(C)[C@@H](O)/C=C/[C@H]1[C@@H]2c3cccc(CCCC(=O)OCCOc4no[n+]([O-])c4S(=O)(=O)c4ccccc4)c3O[C@@H]2C[C@@H]1O` (stereo partly drawn) [Compound 33], the “120 min NO^2−” value in assay [1] is 14.2 µM. Also, in assay [2], the inhibition at 0.005 µM was 82%.

With `CC#CCC(C)[C@@H](O)/C=C/[C@H]1[C@@H]2c3cccc(CCCC(=O)OCCO[N+](=O)[O-])c3O[C@@H]2C[C@@H]1O` (stereo partly drawn) [Compound 1], the “120 min NO^2−” value in assay [1] was determined as 15.5 µM. Also, the inhibition at 0.005 µM in assay [2] came out at 78%.

Consider `CC#CCC(C)[C@@H](O)/C=C/[C@H]1[C@@H]2c3cccc(CCCC(=O)OCCCOC(=O)c4cccc(CO[N+](=O)[O-])c4)c3O[C@@H]2C[C@@H]1O` (stereo partly drawn) [Compound 26], for which the “120 min NO^2−” value in assay [1] came to 12.6 µM. In addition, the inhibition at 0.005 µM in assay [2] was 22%.

For `CC#CCC(C)[C@@H](O)/C=C/[C@H]1[C@@H]2c3cccc(CCCC(=O)OCCCOC(=O)CCCO[N+](=O)[O-])c3O[C@@H]2C[C@@H]1O` (stereo partly drawn) [Compound 22], in assay [1], the “120 min NO^2−” value came out at 13.7 µM. Moreover, the inhibition at 0.005 µM in assay [2] amounted to 52%.

In the case of `CC#CCC(C)[C@@H](O)/C=C/[C@H]1[C@@H]2c3cccc(CCCC(=O)OCCCCOC(=O)c4cccc(CO[N+](=O)[O-])c4)c3O[C@@H]2C[C@@H]1O` (stereo partly drawn) [Compound 27], in assay [1], the “120 min NO^2−” value was found to be 11.9 µM. Moreover, the inhibition at 0.005 µM in assay [2] was determined as 35%.

For the compound `CC#CCC(C)[C@@H](O)/C=C/[C@H]1[C@@H]2c3cccc(CCCC(=O)OCCOC(=O)CO[N+](=O)[O-])c3O[C@@H]2C[C@@H]1O` (stereo partly drawn) [Compound 17], the “120 min NO^2−” value in assay [1] came out at 7.6 µM. Further, the inhibition at 0.005 µM in assay [2] came out at 59%.

Regarding `CC#CCC(C)[C@@H](O)/C=C/[C@H]1[C@@H]2c3cccc(CCCC(=O)OCC(CO[N+](=O)[O-])CO[N+](=O)[O-])c3O[C@@H]2C[C@@H]1O` (stereo partly drawn) [Compound 28], the “120 min NO^2−” value in assay [1] turned out to be 14.8 µM. For the same compound, the inhibition at 0.005 µM in assay [2] was determined as 47%.

On to `CC#CCC(C)[C@@H](O)/C=C/[C@H]1[C@@H]2c3cccc(CCCC(=O)OCOC(=O)Cc4ccc(CO[N+](=O)[O-])cc4)c3O[C@@H]2C[C@@H]1O` (stereo partly drawn) [Compound 24], for which, in assay [1], the “120 min NO^2−” value was 15.8 µM. In addition, the inhibition at 0.005 µM in assay [2] came to 47%.

In the case of `CC#CCC(C)[C@@H](O)/C=C/[C@H]1[C@@H]2c3cccc(CCCC(=O)OCCC(CO[N+](=O)[O-])CO[N+](=O)[O-])c3O[C@@H]2C[C@@H]1O` (stereo partly drawn) [Compound 29], the “120 min NO^2−” value in assay [1] is 16.2 µM. For the same compound, the inhibition at 0.005 µM in assay [2] was found to be 56%.

Regarding `CC#CCC(C)[C@@H](O)/C=C/[C@H]1[C@@H]2c3cccc(CCCC(=O)OCCC4CCC(CO[N+](=O)[O-])CC4)c3O[C@@H]2C[C@@H]1O` (stereo partly drawn) [Compound 14], the “120 min NO^2−” value in assay [1] is 9.6 µM. Further, the inhibition at 0.005 µM in assay [2] was 48%.

Take `CC#CCC(C)[C@@H](O)/C=C/[C@H]1[C@@H]2c3cccc(CCCC(=O)OCCCCCO[N+](=O)[O-])c3O[C@@H]2C[C@@H]1O` (stereo partly drawn) [Compound 4]: the “120 min NO^2−” value in assay [1] turned out to be 14.1 µM. Further, in assay [2], the inhibition at 0.005 µM was found to be 43%.

As to `CC#CCC(C)[C@@H](O)/C=C/[C@H]1[C@@H]2c3cccc(CCCC(=O)OCCCOCC(CO[N+](=O)[O-])O[N+](=O)[O-])c3O[C@@H]2C[C@@H]1O` (stereo partly drawn) [Compound 31], the “120 min NO^2−” value in assay [1] was 16.7 µM. The inhibition at 0.005 µM in assay [2] came to 67%.

As for `CC#CCC(C)[C@@H](O)/C=C/[C@H]1[C@@H]2c3cccc(CCCC(=O)OCCOC(=O)CCO[N+](=O)[O-])c3O[C@@H]2C[C@@H]1O` (stereo partly drawn) [Compound 20], the “120 min NO^2−” value in assay [1] turned out to be 10.0 µM. Besides, in assay [2], the inhibition at 0.005 µM amounted to 45%.

For the compound `CC#CCC(C)[C@@H](O)/C=C/[C@H]1[C@@H]2c3cccc(CCCC(=O)OCOC(=O)CCO[N+](=O)[O-])c3O[C@@H]2C[C@@H]1O` (stereo partly drawn) [Compound 10], the “120 min NO^2−” value in assay [1] came out at 11.3 µM. The inhibition at 0.005 µM in assay [2] was determined as 54%.

As usually defined, the inhibition is how much of the control response was suppressed.
